{"source": "patent US20160272969A1", "about": "“COMPOSITIONS AND METHODS FOR MODULATING AUTOPHAGIC CELL DEATH” (priority 2013, published 2016)", "key": {"MCF-7 cells [1]": {"test_system": "MCF-7 cells", "assay": "Labeling of autophagic vacuoles with monodansylcadaverine (MDC), MCF-7 cells", "format": "cell-based, human", "settings": "for MDC uptake in cells treated with TPCK: MCF-7 cells treated with TPCK, 3 MA 5 mM or bafilomycin A1 50 nM, 24 hours", "procedure": "(§1) The human breast cancer MCF-7 cell line was cultured in DMEM (Invitrogen, 41965) supplemented with 10% FBS (Beit Haemek, 04-121-1A), 300 mg/l L-glutamine (Beit Haemek, 03-020-1B), 100 U/ml penicillin, 100 μg/ml streptomycin and 12.5 U/ml nystatin (Beit Haemek, 03-032-1B) and 100 U/ml recombinant human insulin (Beit Haemek, 01-818-1H), at 37° C. in 5% CO2.\n(§2) Cells were plated in 24-wells plate or 96-well plates at a concentration of 5·10^4 cells/ml. A day later the cells were treated with different concentrations of tamoxifen or TPCK as indicated below.\n(§3) Following treatment, the cells were incubated with 0.05 mM MDC in PBS at 37° C. for 10 minutes (Biederbick et al., Eur J Cell Biol. 1995 January; 66(1):3-14). Intracellular MDC was measured by fluorescence photometry (excitation wavelength 380 nm, emission filter 525 nm) in a TECAN SPECTRA Fluor Plus microplate reader. The MDC fluorescence intensity was correlated to cell density as measured by XTT reduction assay performed in parallel treated samples. The results are expressed as fluorescence/cell.\n(§4) For visualization of MDC-labeled vacuoles, cells were grown on coverslips, incubated with 0.05 mM MDC at 37° C. for 10 minutes. After incubation, cells were washed four times with PBS and immediately analyzed by fluorescence microscopy."}, "MCF-7 cells [2]": {"test_system": "MCF-7 cells", "assay": "Cell death by trypan blue staining, MCF-7 cells", "format": "cell-based, human", "settings": "for TPCK or tamoxifen-induced cell death on addition of autophagy inhibitor: 50 nM bafilomycin A1, 5 mM 3-Methyladenine or combination of 10 m/ml pepstatin with 10 m/ml E64-d", "procedure": "as §1, §2"}, "MCF-7 cells [3]": {"test_system": "MCF-7 cells", "assay": "Western blot of LC3-II levels, MCF-7 cells", "format": "cell-based, human", "settings": "for TPCK-induced accumulation of LC3-II: co-incubation with E64d and pepstatin A together"}, "HT-29 cells [4]": {"test_system": "HT-29 cells", "assay": "Western blot of LC3-II levels, HT-29 cells", "format": "cell-based, human", "settings": "for TPCK-induced accumulation of LC3-II: co-incubation with E64d and pepstatin A together"}, "[5]": {"target": "alpha-1-antitrypsin (AAT) (Homo sapiens, UniProt P01009)", "sequence (P01009 25-418)": "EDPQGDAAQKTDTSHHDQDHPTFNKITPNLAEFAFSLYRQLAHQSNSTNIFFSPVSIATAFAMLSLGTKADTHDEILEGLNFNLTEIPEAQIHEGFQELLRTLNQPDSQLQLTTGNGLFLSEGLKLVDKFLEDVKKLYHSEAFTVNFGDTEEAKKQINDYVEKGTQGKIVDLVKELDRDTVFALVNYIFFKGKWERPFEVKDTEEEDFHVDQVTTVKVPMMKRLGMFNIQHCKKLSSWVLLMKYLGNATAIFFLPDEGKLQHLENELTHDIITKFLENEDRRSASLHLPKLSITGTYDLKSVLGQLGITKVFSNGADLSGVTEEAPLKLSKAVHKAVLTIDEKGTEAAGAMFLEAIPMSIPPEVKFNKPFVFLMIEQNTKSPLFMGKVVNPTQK", "assay": "Interaction assay between AAT and TRFCK (SDS-PAGE fluorescence, Western blot)", "format": "binding", "procedure": "2 μg/μl AAT was incubated in vitro with 50 μM TRFCK in 37° c. for 30 min. After the incubation time the sample was subjected to 10% SDS-PAGE before being transferred to polyvinylidene difluoride (PVDF) membranes. At the end of the transfer the membrane was analyzed under UV lamp to track TRFCK fluorescence. The sample was then exposed to primary antibody anti-AAT. The secondary antibody was an HRP-conjugated anti-goat IgG (Jackson ImmunoResearch, USA) The membrane was then visualized using an ECL+plus Western Blotting Detection System.\nAAT was incubated in vitro with 50 μM TRFCK (a fluorescence analog of TPCK, N-tosyl-L-phenylalanine chloromethyl ketone) in 37° C. for 30 min. Following incubation, the sample was applied to SDS-PAGE electrophoresis and transferred to PVDF membrane. Thereafter, the membrane was analyzed under UV lamp to track TRFCK fluorescence (FIG. 2, track 1). In addition, Western blot analysis was performed using the same membrane with an antibody against AAT (FIG. 2, track 2)."}, "MCF-7 cells [6]": {"test_system": "MCF-7 cells", "assay": "Western blot of intracellular AAT level, MCF-7 cells", "format": "cell-based, human", "settings": "MCF-7 cell lysates; TPCK 50 μM, tamoxifen 10 μM; 1-3 hr treatment", "procedure": "(§5) Normal or treated 10^7 cells were collected, washed twice with ice-cold PBS and resuspended in 0.5 ml ice-cold lysing buffer (50 mM Tris-HCl pH 7.5, 0.1% NP-40, 1 mM DTT, 0.25M sucrose, 2 mM MgCl2). The cells were broken by politron (4 cycles of 7 sec) and the cell debris pelleted by centrifugation in an ultracentrifuge at 120,000×g for 30 min, at 4° C. The supernatant was used immediately or stored at −70° C. Protein content of each sample was determined with BioRad reagent according to Bradford's method using bovine serum albumin (BSA) as standard. Equal amounts of protein samples (40 μg/lane) were subjected to 10% SDS-PAGE before being transferred to polyvinylidene difluoride (PVDF) membranes. The samples were then exposed to the following primary antibodies: goat anti-AAT and goat anti-actin (Santa Cruz Biotechnology, Santa Cruz, Calif.) polyclonal antibody. The secondary antibody was an HRP-conjugated anti-goat IgG (Jackson ImmunoResearch, USA). The membranes were blocked with 5% skin milk/Tris-buffered saline containing 0.1% Tween-20 (TBST) at room temperature for 1 h, after which the samples were incubated overnight at 4° C. with each of the above primary antibodies. The membranes were then washed three times with TBST, followed by 1 h incubation at room temperature with the secondary antibody. […]"}, "HT-29 cells [7]": {"test_system": "HT-29 cells", "assay": "Western blot of intracellular AAT level, HT-29 cells", "format": "cell-based, human", "settings": "HT-29 cell lysates; TPCK 50 μM, tamoxifen 10 μM; 1-3 hr treatment", "procedure": "as §5"}, "trypsin": {"test_system": "trypsin", "assay": "Trypsin activity assay (BAEE cleavage)", "format": "biochemical", "settings": "substrate BAEE, absorbance at 253 nm", "procedure": "(§6) Trypsin activity was determined according to Bergmeyer et. al. (Bergmeyer, H. U., Gawehn, K. and Grassl, M. (1974) in Methods of Enzymatic Analysis (Bergmeyer, H. U. ed.) Volume 1, 2nd ed., 516-517, Academic Press, New York, N.Y.). All assays were set up at a total volume of 1 ml by adding 65 μl trypsin at final amount of 1.625 μg, 0.23 mM Na-benzoyl-L-arginine ethyl ester (BAEE) as substrate in 63 mM sodium phosphate, in the presence or absence of 100 μM or 125 μM AAT with or without different concentration of TPCK. Trypsin activity was measured by the cleavage of the substrate BAEE by measuring absorbance at 253 nm."}, "HT-29 cells [8]": {"test_system": "HT-29 cells", "assay": "Labeling of autophagic vacuoles with monodansylcadaverine (MDC), HT-29 cells", "format": "cell-based, human", "settings": "HT-29 cells treated with TPCK for 24 hours", "procedure": "HT-29 colorectal adenocarcinoma cells were cultured in RPMI 1640 (Invitrogene, 21875) supplemented with 10% FBS, 300 mg/l L-glutamine, 100 U/ml penicillin, 100 μg/ml streptomycin and 12.5 U/ml nystatin at 37° C. in 5% CO2.\nas §2, §3, §4"}, "[9]": {"test_system": "GFP-LC3 transfected MCF-7 cells", "assay": "GFP-LC3 imaging of transfected MCF-7 cells", "format": "cell-based, human", "settings": "TPCK 50 μM, 24 hours"}, "AAT": {"target": "AAT (Homo sapiens, UniProt P01009)", "sequence (P01009 25-418)": "as above", "assay": "AAT inhibition of trypsin activity (BAEE cleavage)", "format": "biochemical", "settings": "TPCK added to AAT and trypsin; P<0.001 compared with control", "procedure": "as §6"}, "[10]": {"test_system": "alpha-1-antitrypsin (AAT)"}}, "note": "Where a SMILES comes first, the peptide text is derived from it. [ ]: non-standard residue; d: D form. The star is where a group is joined. Sta = CC(C)C[C@H](N)[C@@H](O)CC(=O)O; Isovaleryl = CC(C)CC(=O)*", "data": [{"compound": "Cn1cnc(N)c2ncnc1-2", "note": "[3-Methyladenine]", "values": [{"measurement": "MDC uptake in cells treated with TPCK", "setting": "MCF-7 cells [1]", "result": "suppressed MDC uptake"}, {"measurement": "TPCK or tamoxifen-induced cell death on addition of autophagy inhibitor", "setting": "MCF-7 cells [2]", "result": "reduced TPCK or tamoxifen-induced cell death"}]}, {"compound": "CCOC(=O)[C@H]1O[C@@H]1C(=O)N[C@@H](CC(C)C)C(=O)NCCC(C)C", "note": "[E64d]", "values": [{"measurement": "TPCK-induced accumulation of LC3-II", "setting": "MCF-7 cells [3]", "result": "enhanced TPCK-induced accumulation of LC3-II"}, {"measurement": "TPCK-induced accumulation of LC3-II", "setting": "HT-29 cells [4]", "result": "enhanced TPCK-induced accumulation of LC3-II"}, {"measurement": "TPCK or tamoxifen-induced cell death on addition of autophagy inhibitor", "setting": "MCF-7 cells [2]", "result": "reduced TPCK or tamoxifen-induced cell death"}]}, {"compound": "CO/C1=C\\C(C)=C\\[C@@H](C)[C@@H](O)[C@@H](C)C/C(C)=C/C=C/[C@H](OC)[C@@H]([C@@H](C)[C@@H](O)[C@H](C)[C@@]2(O)C[C@@H](O)[C@H](C)[C@@H](C(C)C)O2)OC1=O", "note": "[bafilomycin A1]", "values": [{"measurement": "MDC uptake in cells treated with TPCK", "setting": "MCF-7 cells [1]", "result": "suppressed MDC uptake"}, {"measurement": "TPCK or tamoxifen-induced cell death on addition of autophagy inhibitor", "setting": "MCF-7 cells [2]", "result": "reduced TPCK or tamoxifen-induced cell death"}]}, {"compound": "CC(C)CC(=O)N[C@H](C(=O)N[C@H](C(=O)N[C@@H](CC(C)C)[C@@H](O)CC(=O)N[C@@H](C)C(=O)N[C@@H](CC(C)C)[C@@H](O)CC(=O)O)C(C)C)C(C)C", "note": "[pepstatin A] (Isovaleryl-VV[Sta]A[Sta]-OH)", "values": [{"measurement": "TPCK-induced accumulation of LC3-II", "setting": "MCF-7 cells [3]", "result": "enhanced TPCK-induced accumulation of LC3-II"}, {"measurement": "TPCK-induced accumulation of LC3-II", "setting": "HT-29 cells [4]", "result": "enhanced TPCK-induced accumulation of LC3-II"}, {"measurement": "TPCK or tamoxifen-induced cell death on addition of autophagy inhibitor", "setting": "MCF-7 cells [2]", "result": "reduced TPCK or tamoxifen-induced cell death"}]}, {"compound": "CC/C(=C(\\c1ccccc1)c1ccc(OCCN(C)C)cc1)c1ccccc1", "note": "[tamoxifen]", "values": [{"measurement": "competition with TRFCK on binding to AAT", "setting": "[5]", "result": "not able to compete with TRFCK on binding to AAT"}, {"measurement": "cell death by trypan blue staining", "setting": "MCF-7 cells [2]", "result": "induced cell death"}, {"measurement": "AAT level as compared to actin", "setting": "MCF-7 cells [6]", "result": "AAT level decreased"}, {"measurement": "AAT level as compared to actin", "setting": "HT-29 cells [7]", "result": "AAT level decreased"}]}, {"compound": "AAT: plasma-derived protein of the serine proteinase inhibitor family; recombinant AAT added to cells", "values": [{"measurement": "autophagy induced by TPCK and tamoxifen, assessed by MDC staining", "setting": "MCF-7 cells [1]; MCF-7 cells, AAT added prior to induction by TPCK (50 μM, 24 h) or tamoxifen (5 μM, 72 h)", "result": "reduction in autophagy"}, {"measurement": "cell death induced by TPCK and tamoxifen, determined by trypan blue staining", "setting": "MCF-7 cells [2]; AAT added prior to induction by TPCK (50 μM, 24 h) or tamoxifen (5 μM, 72 h)", "result": "reduction"}, {"measurement": "trypsin activity", "setting": "trypsin", "result": "inhibits trypsin activity"}]}, {"compound": "N-tosyl-L-phenylalanine chloromethyl ketone [TPCK]", "values": [{"measurement": "MDC fluorescence intensity, number and size of MDC-labeled vesicles", "setting": "MCF-7 cells [1]; MCF-7 cells treated with TPCK for 24 hours", "result": "dose dependent increase in fluorescence intensity"}, {"measurement": "MDC fluorescence intensity, number and size of MDC-labeled vesicles", "setting": "HT-29 cells [8]", "result": "dose dependent increase in fluorescence intensity"}, {"measurement": "GFP-LC3 label (number of autophagosomes)", "setting": "[9]", "result": "accumulation of this label"}, {"measurement": "LC3-II by western blot", "setting": "MCF-7 cells [3]; TPCK 50 μM, different times", "result": "appearance of LC3-II"}, {"measurement": "LC3-II by western blot", "setting": "HT-29 cells [4]; TPCK 50 μM, different times", "result": "appearance of LC3-II"}, {"measurement": "cell death by trypan blue staining", "setting": "MCF-7 cells [2]", "result": "induced cell death"}, {"measurement": "trypsin activity", "setting": "trypsin", "result": "did not inhibit the trypsin activity"}, {"measurement": "AAT inhibition of trypsin activity", "setting": "AAT", "result": "the inhibition by AAT was abolished"}, {"measurement": "AAT level as compared to actin", "setting": "MCF-7 cells [6]", "result": "AAT level decreased"}, {"measurement": "AAT level as compared to actin", "setting": "HT-29 cells [7]", "result": "AAT level decreased"}]}, {"compound": "trypsin", "values": [{"measurement": "trypsin activity (cleavage of the substrate BAEE, absorbance at 253 nm)", "setting": "[10]", "result": "AAT inhibits trypsin activity"}]}]}
